Data taken from patent US20030191147A1, “Opioid antagonist compositions and dosage forms” (priority 2002, published 2003).

Experiments:
[1] = Binding of drug in solution to pharmaceutical excipients
[2] = system: moderate to severe pain following dental surgery; assay: Dose ranging clinical study of morphine 30, 60, 90 mg alone or with NTX 0.1 mg; type: in vivo, human; conditions: 30 mg, 60 mg and 90 mg MS alone compared with each other
Method: In this dose ranging study, doses of morphine sulfate (30 mg, 60 mg, and 90 mg) in combination with naltrexone hydrochloride (0.1 mg) were administered for moderate to severe pain in male patients following dental surgery. This study was performed to investigate the efficacy of combinations of different doses of morphine with naltrexone 0.1 mg, relative to placebo and relative to morphine alone, to evaluate the dose-response effects of morphine when administered alone and when coadministered with naltrexone 0.1 mg, and to examine the consistency of effect of naltrexone 0.1 mg across different doses of morphine, when coadministered with morphine.
The 210 subject study was designed with seven treatment groups: A) placebo (30 pts); B) morphine 30 mg (30 pts); C) morphine 60 mg (30 pts); D) morphine 90 mg (30 pts); E) morphine 30 mg and naltrexone 0.1 mg (30 pts); F) morphine 60 mg and naltrexone 0.1 mg (30 pts); G) morphine 90 mg and naltrexone 0.1 mg (30 pts). In this study, in the treatment of moderate to severe pain following extraction of 3 or 4 full or partial bony impacted third molars, a single oral dose of one of the treatments was administered when the patient was suffering moderate to severe postoperative pain. The observation period for efficacy was 8 hours post treatment and for safety was 24 hours post treatment. […]

postsurgical patients = conditions: PCA/IV morphine with low dose IV antagonist; cited from earlier work
[3] = system: moderate to severe pain following dental surgery; assay: Dose ranging clinical study of morphine 60 mg with NTX 0.1, 0.01 or 0.001 mg, and NTX alone; type: in vivo, human; conditions: NTX 0.01 mg alone, among treatment groups
Method: In a dose ranging study, doses of morphine sulfate (60 mg) in combination with naltrexone hydrochloride (0.1 mg, 0.01 mg, or 0.001 mg) were administered for moderate to severe pain in patients following dental surgery. This study was performed to investigate the analgesic efficacy (onset, peak, duration, and total effect) of morphine alone, naltrexone alone, three different doses of naltrexone in combination with morphine and placebo.
The 300 subject study was designed with six treatment groups: A) placebo (50 pts); B) morphine 60 mg (50 pts); C) naltrexone 0.01 mg (50 pts); D) morphine 60 mg and naltrexone 0.1 mg (50 pts); E) morphine 60 mg and naltrexone 0.01 mg (50 pts); F) morphine 60 mg and naltrexone 0.001 mg (50 pts). In this study, in the treatment of moderate to severe pain following extraction of 3 or 4 full or partial bony impacted third molars, a single oral dose of one of the treatments was administered when the patient was suffering moderate to severe postoperative pain. The observation period for efficacy was 8 hours post treatment, and for safety was 24 hours post treatment.
The efficacy and safety evaluations included pain intensity, pain relief, global pain evaluation, evaluation of time to meaningful pain relief (stopwatch), visual analog scale (VAS), and adverse event assessments. For the data analysis, certain pain parameters were computed as generally described above.

[4] = system: excitatory opioid receptors; conditions: mice, antagonist on the order of ng/kg with morphine or similar opioid agonists; cited from earlier work
[5] = excipients of Example 10, aqueous environment
[6] = excipients of Example 12, aqueous environment

For `CN1CC[C@]23c4c5ccc(O)c4O[C@H]2[C@@H](O)C=C[C@H]3[C@H]1C5.O=S(=O)(O)O` [MS, morphine sulfate], the “binding to croscarmellose sodium” value ([1]; croscarmellose sodium) was “also bound to this excipient”, the “binding by the excipients used” value [1, 5] was “not to bind” and the “binding by the excipients used” value [1, 6] was “not to bind”. For the same compound, the “mean SPID scores” value [2] was “comparable” and the “mean Total Pain Relief scores” value [2] was “comparable”.

For `C=C1CC[C@@]2(O)[C@H]3Cc4ccc(O)c5c4[C@@]2(CCN3CC2CC2)[C@H]1O5` [nalmefene, 6-methylene-6-desoxy-N-cyclopropyl-methyl-14-hydroxydihydroxy-dihydronormorphine], the “effect on potency of morphine” value (postsurgical patients) is given as “markedly enhanced potency of morphine”.

For `C=CCN1CC[C@]23c4c5ccc(O)c4O[C@H]2C(=O)CC[C@@]3(O)[C@H]1C5` [naloxone, 4,5-epoxy-3,14-dihydroxy-17-(2-prophenyl)morphinan-6-one], the “effect on potency of morphine” value (postsurgical patients) is given as “markedly enhanced potency of morphine”.

In the case of `Cl.O=C1CC[C@@]2(O)[C@H]3Cc4ccc(O)c5c4[C@@]2(CCN3CC2CC2)[C@H]1O5` [naltrexone hydrochloride, 17-cyclopropylmethyl-4,5α-epoxy-3,14-dihydroxymorphinan-6-one hydrochloride], the global evaluation scores [3] is reported as “highest number of subjects who had “poor” global evaluation scores”, the “mean 4 hour Sum of Pain Intensity Difference (SPID) scores” value [3] is reported as “lowest” and the “mean Total Pain Relief scores” value [3] is reported as “lowest”. The “effect on analgesic potency of opioid agonists” value [4] was “markedly enhancing the analgesic potency of opioid agonists”, the “fraction of drug bound by croscarmellose sodium” value ([1]; drug in solution mixed with croscarmellose sodium in suspension) was “more than 90%” and the “binding by the excipients used” value [1, 5] was “not to bind”. The “binding by the excipients used” value [1, 6] was “not to bind”.
